Where two headings read alike, the source gives them in different places.
Tests used:
THP-1 cells [1] = details: Homo sapiens
THP-1 cells [2] = assay: MCP-1 Induced Chemotaxis in THP-1 Cells; assay type: cell-based; details: Homo sapiens, THP-1 cells, MCP-1 0.01 μg/mL, 3 hours, read-out: Inhibition of MCP-1 Induced Chemotaxis IC50
CCR2 = biological target: T1, CCR2 (Homo sapiens, UniProt P41597)
T1 sequence (P41597 1-360 isoform P41597-2): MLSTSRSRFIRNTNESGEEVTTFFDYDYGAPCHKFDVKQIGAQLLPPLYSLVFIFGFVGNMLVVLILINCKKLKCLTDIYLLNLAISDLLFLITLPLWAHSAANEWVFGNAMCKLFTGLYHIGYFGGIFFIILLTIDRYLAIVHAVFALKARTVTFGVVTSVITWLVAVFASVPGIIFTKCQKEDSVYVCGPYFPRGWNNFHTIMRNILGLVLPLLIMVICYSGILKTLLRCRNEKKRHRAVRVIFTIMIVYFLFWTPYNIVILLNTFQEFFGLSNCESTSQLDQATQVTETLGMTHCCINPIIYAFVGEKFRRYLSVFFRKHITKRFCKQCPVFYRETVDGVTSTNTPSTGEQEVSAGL

[3] = THP-1, read-out: Inhibition of MCP-1 Induced Calcium Ion Influx IC50
[4] = THP-1, read-out: Inhibition of MCP-1 Induced Calcium Ion Influx IC50, THP-1 cells, 0.2 μM MCP-1, FLIPR

IC50 (THP-1 cells [1]; [3]) [nM]	IC50 (THP-1 cells [2]) [nM]	IC50 (CCR2) [nM]	IC50 (THP-1 cells [1]; [4]) [nM]	IC50 (THP-1 cells [2]; THP-1, 3 h) [nM]	IC50 (CCR2; Inhibition of MCP-1 Binding IC50, 125I labeled MCP-1 binding to CCR2, THP-1 cells) [nM]	SMILES
1010	160	90				O=C(O)C(C1CCN(C(=O)/C=C/c2ccsc2)CC1)N1CCC(c2c[nH]c3ccccc23)CC1 (stereo not drawn) [Cpd 104, [4-(1H-indol-3-yl)-piperidin-1-yl]-{1-[(2E)-3-thiophen-3-yl-acryloyl]-piperidin-4-yl}-acetic acid]
130	10	90				Cc1ccc(NC(=O)N2CCC(C(C(=O)O)N3CCC(c4c[nH]c5ccccc45)CC3)CC2)cc1F (stereo not drawn) [Cpd 105, [1-(3-fluoro-4-methyl-phenylcarbamoyl)-piperidin-4-yl]-[4-(1H-indol-3-yl)-piperidin-1-yl]-acetic acid]
110	210	20				Cc1ccc(NC(=O)N2CCC(C(C(=O)O)N3CCC(c4c[nH]c5ccccc45)CC3)CC2)cc1C(F)(F)F (stereo not drawn) [Cpd 106, [4-(1H-indol-3-yl)-piperidin-1-yl]-[1-(4-methyl-3-trifluoromethyl-phenylcarbamoyl)-piperidin-4-yl]-acetic acid]
30	30	20				CS(=O)(=O)Nc1ccc2[nH]cc(C3CCN(C(C(=O)O)C4CCN(C(=O)Nc5ccc(Cl)c(Cl)c5)CC4)CC3)c2c1 (stereo not drawn) [Cpd 109, [1-(3,4-dichloro-phenylcarbamoyl)-piperidin-4-yl]-[4-(5-methanesulfonylamino-1H-indol-3-yl)-piperidin-1-yl]-acetic acid]
0.6	4	4				O=C(/C=C/c1cc(F)c(F)c(F)c1)N1CCC(C(CO)N2CCC(c3c[nH]c4ccccc34)CC2)CC1 (stereo not drawn) [Cpd 112, (2E)-1-(4-{2-hydroxy-1-[4-(1H-indol-3-yl)-piperidin-1-yl]-ethyl}-piperidin-1-yl)-3-(3,4,5-trifluoro-phenyl)-propenone]
			1	95	6	O=C(/C=C/c1ccc(F)c(F)c1)N1CCC(C(CO)N2CCC(c3c[nH]c4ccccc34)CC2)CC1 (stereo not drawn) [Cpd 113, (2E)-3-(3,4-difluoro-phenyl)-1-(4-{2-hydroxy-1-[4-(1H-indol-3-yl)-piperidin-1-yl]-ethyl}-piperidin-1-yl)-propenone]
		350	210	290		O=C(O)C(C1CCN(C(=O)COc2ccc(Cl)c(Cl)c2)CC1)N1CCC(c2c[nH]c3ccccc23)CC1 (stereo not drawn) [Cpd 114, {1-[2-(3,4-dichloro-phenoxy)-acetyl]-piperidin-4-yl}-[4-(1H-indol-3-yl)-piperidin-1-yl]-acetic acid]
2	0.4	0.6				O=C(/C=C/c1cc(F)cc(F)c1)N1CCC(C(CO)N2CCC(c3c[nH]c4ccccc34)CC2)CC1 (stereo not drawn) [Cpd 116, (2E)-3-(3,5-difluoro-phenyl)-1-(4-{2-hydroxy-1-[4-(1H-indol-3-yl)-piperidin-1-yl]-ethyl}-piperidin-1-yl)-propenone]
0.1	12	0.2				O=C(/C=C/c1ccc(Cl)c(Cl)c1)N1CCC(C(CO)N2CCC(c3c[nH]c4ccccc34)CC2)CC1 (stereo not drawn) [Cpd 121, (2E)-3-(3,4-dichloro-phenyl)-1-(4-{2-hydroxy-1-[4-(1H-indol-3-yl)-piperidin-1-yl]-ethyl}-piperidin-1-yl)-propenone]
4	5	9				O=C(Nc1ccc(Cl)c(Cl)c1)N1CCC(C(CO)N2CCC(c3c[nH]c4ccccc34)CC2)CC1 (stereo not drawn) [Cpd 123, 4-{2-hydroxy-1-[4-(1H-indol-3-yl)-piperidin-1-yl]-ethyl}-piperidine-1-carboxylic acid (3,4-dichloro-phenyl)-amide]
820	750	760				CSc1ccc(NC(=O)N2CCC(C(C(=O)O)N3CCC(c4c[nH]c5ccccc45)CC3)CC2)cc1 (stereo not drawn) [Cpd 127, [4-(1H-indol-3-yl)-piperidin-1-yl]-[1-(4-methylsulfanyl-phenylcarbamoyl)-piperidin-4-yl]-acetic acid]
20	80	40				O=C(Nc1cc(F)cc(F)c1)N1CCC(C(CO)N2CCC(c3c[nH]c4ccccc34)CC2)CC1 (stereo not drawn) [Cpd 129, 4-{2-hydroxy-1-[4-(1H-indol-3-yl)-piperidin-1-yl]-ethyl}-piperidine-1-carboxylic acid (3,5-difluoro-phenyl)-amide]
0.8	40	10				COc1cccc2c(C3CCN(C(CO)C4CCN(C(=O)/C=C/c5cc(F)c(F)c(F)c5)CC4)CC3)c[nH]c12 (stereo not drawn) [Cpd 133, (2E)-1-(4-{2-hydroxy-1-[4-(7-methoxy-1H-indol-3-yl)-piperidin-1-yl]-ethyl}-piperidin-1-yl)-3-(3,4,5-trifluoro-phenyl)-propenone]
10	90	300				CS(=O)(=O)N(CC(C1CCN(C(=O)/C=C/c2cc(F)cc(F)c2)CC1)N1CCC(c2c[nH]c3ccccc23)CC1)S(C)(=O)=O (stereo not drawn) [Cpd 134, N-{2-{1-[(2E)-3-(3,5-difluoro-phenyl)-acryloyl]-piperidin-4-yl}-2-[4-(1H-indol-3-yl)-piperidin-1-yl]-ethyl}-N-methanesulfonyl-methanesulfonamide]
7100	770	940				Cc1cc(C)cc(NC(=O)N2CCC(C(C(=O)O)N3CCC(c4c[nH]c5ccccc45)CC3)CC2)c1 (stereo not drawn) [Cpd 135, [1-(3,5-dimethyl-phenylcarbamoyl)-piperidin-4-yl]-[4-(1H-indol-3-yl)-piperidin-1-yl]-acetic acid]
130	140	80				O=C(O)C(C1CCN(C(=O)Nc2cc(C(F)(F)F)cc(C(F)(F)F)c2)CC1)N1CCC(c2c[nH]c3ccccc23)CC1 (stereo not drawn) [Cpd 136, [1-(3,5-bis-trifluoromethyl-phenylcarbamoyl)-piperidin-4-yl]-[4-(1H-indol-3-yl)-piperidin-1-yl]-acetic acid]
210	80	30				COc1ccc(C2CCN(C(CO)C3CCN(C(=O)/C=C/c4cc(F)cc(F)c4)CC3)CC2)cc1 (stereo not drawn) [Cpd 137, (2E)-3-(3,5-difluoro-phenyl)-1-(4-{2-hydroxy-1-[4-(4-methoxy-phenyl)-piperidin-1-yl]-ethyl}-piperidin-1-yl)-propenone]
1290	217	172				COc1ccc(C2CCN(C(CO)C3CCN(C(=O)/C=C/c4ccc(F)c(F)c4)CC3)CC2)cc1 (stereo not drawn) [Cpd 138, (2E)-3-(3,4-difluoro-phenyl)-1-(4-{2-hydroxy-1-[4-(4-methoxy-phenyl)-piperidin-1-yl]-ethyl}-piperidin-1-yl)-propenone]
40	50	20				COc1ccc(C2CCN(C(CO)C3CCN(C(=O)/C=C/c4ccc(Cl)c(Cl)c4)CC3)CC2)cc1 (stereo not drawn) [Cpd 139, (2E)-3-(3,4-dichloro-phenyl)-1-(4-{2-hydroxy-1-[4-(4-methoxy-phenyl)-piperidin-1-yl]-ethyl}-piperidin-1-yl)-propenone]
6900	760	340				COc1ccc(C2CCN(C(CO)C3CCN(C(=O)Nc4ccc(F)c(F)c4)CC3)CC2)cc1 (stereo not drawn) [Cpd 141, 4-{2-hydroxy-1-[4-(4-methoxy-phenyl)-piperidin-1-yl]-ethyl}-piperidine-1-carboxylic acid (3,4-difluoro-phenyl)-amide]
30	60	5				O=C(O)C(C1CCN(C(=O)Nc2ccc(SC(F)(F)F)cc2)CC1)N1CCC(c2c[nH]c3ccccc23)CC1 (stereo not drawn) [Cpd 142, [4-(1H-indol-3-yl)-piperidin-1-yl]-[1-(4-trifluoromethylsulfanyl-phenylcarbamoyl)-piperidin-4-yl]-acetic acid]
1300	500	50				CSc1cccc(NC(=O)N2CCC(C(C(=O)O)N3CCC(c4c[nH]c5ccccc45)CC3)CC2)c1 (stereo not drawn) [Cpd 144, [4-(1H-indol-3-yl)-piperidin-1-yl]-[1-(3-methylsulfanyl-phenylcarbamoyl)-piperidin-4-yl]-acetic acid]
50	53	7				COC(=O)c1ccc2[nH]cc(C3CCN(C(C(=O)O)C4CCN(C(=O)/C=C/c5cc(F)c(F)c(F)c5)CC4)CC3)c2c1 (stereo not drawn) [Cpd 146, 3-[1-(carboxy-{1-[(2E)-3-(3,4,5-trifluoro-phenyl)-acryloyl]-piperidin-4-yl}-methyl)-piperidin-4-yl]-1H-indole-5-carboxylic acid methyl ester]
600	40	150				O=C(O)c1ccc2[nH]cc(C3CCN(C(C(=O)O)C4CCN(C(=O)/C=C/c5cc(F)c(F)c(F)c5)CC4)CC3)c2c1 (stereo not drawn) [Cpd 147, 3-[1-(carboxy-{1-[(2E)-3-(3,4,5-trifluoro-phenyl)-acryloyl]-piperidin-4-yl}-methyl)-piperidin-4-yl]-1H-indole-5-carboxylic acid]
